From US9238625B2, “Compositions, synthesis, and methods of using phenylcycloalkylmethylamine derivatives” (Reviva Pharmaceuticals, Inc., priority 2011, dated 2016)

How the values were obtained:
[1] = molecular target: human recombinant transporter protein dopamine (DAT) (Homo sapiens (Human), UniProt Q01959); assay: radioligand binding assay, dopamine transporter; settings: 11 test concentrations 0.1 nM to 1 μM, duplicates, hydrochloride salts
Protocol: (§1) The monoamine transporters inhibitory activities of selected cycloalkylmethylamines of Formula (I) are reported herein. The compounds were evaluated using well established radioligand binding assays protocols (Galli, A. et al., J. Exp. Biol. 1995, 198, 2197-2212; Giros, B. et al., Trends Pharmcol. Sci. 1993, 14, 43-49; Gu, H. et al., J. Biol. Chem. 1994, 269(10), 7124-7130; Shearman, L. P. et al, Am. J. Physiol., 1998, 275(6 Pt 1), C1621-1629; Wolf, W. A. et al., J. Biol. Chem. 1992, 267(29), 20820-20825). The human recombinant transporter proteins dopamine (DAT), norepinephrine (NET) and serotonin (SERT) were selected for the in vitro assays. The radioligand binding assays were carried out at 11 different test concentrations 0.1 nM to 1 μM.
(§2) The assays were carried out in duplicates and the quantitative data are reported as Ki in the Table 1.

[2] = molecular target: human recombinant transporter protein norepinephrine (NET) (Homo sapiens (Human), UniProt P23975); assay: radioligand binding assay, norepinephrine transporter; settings: 11 test concentrations 0.1 nM to 1 μM, duplicates, hydrochloride salts
Protocol: as §1, §2

[3] = molecular target: human recombinant transporter protein serotonin (SERT) (Homo sapiens (Human), UniProt P31645); assay: radioligand binding assay, serotonin transporter; settings: 11 test concentrations 0.1 nM to 1 μM, duplicates, hydrochloride salts
Protocol: as §1, §2

[4] = active metabolites of sibutramine; cited from earlier work

Sequence of human recombinant transporter protein dopamine (DAT) (Q01959 whole entry): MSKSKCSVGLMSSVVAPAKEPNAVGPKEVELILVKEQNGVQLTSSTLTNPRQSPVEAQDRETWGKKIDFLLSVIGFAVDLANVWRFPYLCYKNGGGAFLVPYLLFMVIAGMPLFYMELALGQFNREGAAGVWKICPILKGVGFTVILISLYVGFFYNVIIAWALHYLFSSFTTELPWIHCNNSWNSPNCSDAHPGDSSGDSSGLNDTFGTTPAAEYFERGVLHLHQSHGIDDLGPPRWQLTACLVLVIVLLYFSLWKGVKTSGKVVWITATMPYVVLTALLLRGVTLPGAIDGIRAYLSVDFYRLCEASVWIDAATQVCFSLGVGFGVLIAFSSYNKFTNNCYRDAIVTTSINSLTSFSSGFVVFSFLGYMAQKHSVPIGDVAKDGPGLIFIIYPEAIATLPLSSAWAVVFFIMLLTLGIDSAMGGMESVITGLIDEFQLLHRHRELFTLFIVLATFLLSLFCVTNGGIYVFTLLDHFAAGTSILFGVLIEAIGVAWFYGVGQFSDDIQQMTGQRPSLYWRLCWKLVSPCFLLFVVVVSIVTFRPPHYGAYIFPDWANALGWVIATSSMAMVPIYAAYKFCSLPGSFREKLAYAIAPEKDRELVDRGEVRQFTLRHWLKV
Sequence of human recombinant transporter protein norepinephrine (NET) (P23975 whole entry): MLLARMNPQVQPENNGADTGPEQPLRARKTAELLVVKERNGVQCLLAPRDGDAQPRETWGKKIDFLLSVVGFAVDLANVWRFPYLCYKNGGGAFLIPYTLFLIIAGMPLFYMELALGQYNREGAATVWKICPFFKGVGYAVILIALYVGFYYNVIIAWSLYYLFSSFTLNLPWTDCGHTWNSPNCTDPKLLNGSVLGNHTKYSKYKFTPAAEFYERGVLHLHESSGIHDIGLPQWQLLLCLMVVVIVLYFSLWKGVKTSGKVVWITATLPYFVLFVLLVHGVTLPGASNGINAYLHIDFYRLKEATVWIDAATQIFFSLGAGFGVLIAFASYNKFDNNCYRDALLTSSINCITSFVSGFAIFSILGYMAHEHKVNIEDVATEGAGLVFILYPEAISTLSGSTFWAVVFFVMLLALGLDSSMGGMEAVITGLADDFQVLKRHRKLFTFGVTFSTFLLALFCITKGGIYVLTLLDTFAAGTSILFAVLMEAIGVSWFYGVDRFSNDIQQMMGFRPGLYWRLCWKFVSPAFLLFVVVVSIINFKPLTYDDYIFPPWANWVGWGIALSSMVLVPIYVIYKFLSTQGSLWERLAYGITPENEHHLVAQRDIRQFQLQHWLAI

Row | SMILES | Ki [1] [nM] | Ki [2] [nM] | Ki [3] [nM] | elimination half-life [4] [h]
1 | CCOCCCCNC(CC(C)C)C1(c2ccc(SC)cc2)CCC1 (centres unmarked) [Compound 7g, N-(4-Ethoxybutyl)-3-methyl-1-(1-(4-(methylthio)phenyl)cyclobutyl)butan-1-amine] | 92 | 37.2 | 2.99 | 
2 | CCOCCNC(CC(C)C)C1(c2ccc(Cl)c(Cl)c2)CCC1 (centres unmarked) [Compound 8a, 1-(1-(3,4-Dichlorophenyl)cyclobutyl)-N-(2-ethoxyethyl)-3-methylbutan-1-amine] | 2.38 | 46.7 | 1.4 | 
3 | CCCOCCCN[C@H](CC(C)C)C1(c2ccc(Cl)c(Cl)c2)CCC1 [Compound 8d, (R)-1-(1-(3,4-Dichlorophenyl)cyclobutyl)-N-(3-propoxypropyl)-3-methylbutan-1-amine] | 5.45 | 72 | 3.8 | 
4 | COCCCCN[C@H](CC(C)C)C1(c2ccc(Cl)c(Cl)c2)CCC1 [Compound 8h, (R)-1-(1-(3,4-Dichlorophenyl)cyclobutyl)-N-(4-methoxybutyl)-3-methylbutan-1-amine] | 2.39 | 12.7 | 1.19 | 
5 | CCOCCCCN[C@H](CC(C)C)C1(c2ccc(Cl)c(Cl)c2)CCC1 [Compound 8j, (R)-1-(1-(3,4-Dichlorophenyl)cyclobutyl)-N-(4-ethoxybutyl)-3-methylbutan-1-amine] | 1.16 | 11 | 0.8 | 
6 | CCSCCCCNC(CC(C)C)C1(c2ccc(Cl)cc2)CCC1 (centres unmarked) [Compound 12b, 1-(1-(4-Chlorophenyl)cyclobutyl)-N-(4-(ethylthio)butyl)-3-methylbutan-1-amine] | 67.6 | 51.9 | 18.8 | 
7 | CCOc1ccc(C2(C(CC(C)C)NCCSCC)CCC2)cc1 (centres unmarked) [Compound 12c, 1-(1-(4-Ethoxyphenyl)cyclobutyl)-N-(2-(ethylthio)ethyl)-3-methylbutan-1-amine] | 116 | 1420 | 3.31 | 
8 | CCSCCCCNC(CC(C)C)C1(c2ccc(Cl)c(Cl)c2)CCC1 (centres unmarked) [Compound 13c, 1-(1-(3,4-Dichlorophenyl)cyclobutyl)-N-(4-(ethylthio)butyl)-3-methylbutan-1-amine] | 23.9 | 17.1 | 14.8 | 
9 | CCCCSCCCCNC(CC(C)C)C1(c2ccc(Cl)c(Cl)c2)CCC1 (centres unmarked) [Compound 13d, N-(4-(Butylthio)butyl)-1-(1-(3,4-dichlorophenyl)cyclobutyl)-3-methylbutan-1-amine] | 104 | 51 | 65.3 | 
10 | CCSCCNC(CC)C1(c2ccc(Cl)c(Cl)c2)CCC1 (centres unmarked) [Compound 13f, 1-(1-(3,4-dichlorophenyl)cyclobutyl)-N-(2-(ethylthio)ethyl)propan-1-amine] | 49.2 | 119 | 224 | 
11 | CCS(=O)(=O)CCCCNC(CC(C)C)C1(c2ccc(Cl)c(Cl)c2)CCC1 (centres unmarked) [Compound 17a, 1-(1-(3,4-Dichlorophenyl)cyclobutyl)-N-(4-(ethylsulfonyl)butyl)-3-methylbutan-1-amine] | 29.4 | 44.7 | 38.4 | 
12 | CNC(CC(C)C)C1(c2ccc(Cl)cc2)CCC1 (centres unmarked) [Compound M1] |  |  |  | 14
13 | CC(C)CC(N)C1(c2ccc(Cl)cc2)CCC1 (centres unmarked) [Compound M2] |  |  |  | 16
